Results: US20160303081A1, “INHIBITORS OF BETA1-INTEGRIN AND METHODS OF USE” (The Texas A&M University System, priority 2015, published 2016)

How the values were obtained:
[1] = molecular target: ligand binding domain (LBD) of NR4A1 (Homo sapiens, UniProt P22736); test: Fluorescence quenching binding assay with His-NR4A1 (LBD); conditions: His-tagged ligand binding domain of NR4A1
From the text: (§1) These compounds bind the receptor and are receptor antagonists. Thus, C-DIMs are the first NR4A1 antagonists that inhibit NR4A1-mediated pro-oncogenic genes/pathways. The transactivation and NR4A1 binding of the p-hydroxyphenyl (DIM-C-pPhOH) analog was initially investigated.
Using a fluorescent binding assay, a library of C-DIM compounds were screened. Specifically, 14 different C-DIM analogs with pPhX on the bridging carbon (i.e., as R8) were screened, where X was CF3, Br, F, t-Butyl, OCH3, N-dimethylamino, H, OH, C6H5, CN, CH3, Cl, I and CO2Me. Each analog bound the ligand binding domain of NR4A1 and KD values for binding varied from 0.1-0.71 μM.

[2] = molecular target: T1, NR4A1 (Homo sapiens, UniProt P22736); test: GAL4-NR4A1 / UAS5-luc transactivation reporter assay in Panc1 cells; assay type: cell-based; conditions: Panc1 cells transfected with GAL4-NR4A1 (full length) and UAS5-luc reporter; FIG. 2A/2B
T1 construct: Panc1 cells were transfected with a GAL4-NR4A1 (full length) construct; expressed in transfected cells; host or cells: Panc1
T1 sequence (P22736 whole entry, the tested form may be a part): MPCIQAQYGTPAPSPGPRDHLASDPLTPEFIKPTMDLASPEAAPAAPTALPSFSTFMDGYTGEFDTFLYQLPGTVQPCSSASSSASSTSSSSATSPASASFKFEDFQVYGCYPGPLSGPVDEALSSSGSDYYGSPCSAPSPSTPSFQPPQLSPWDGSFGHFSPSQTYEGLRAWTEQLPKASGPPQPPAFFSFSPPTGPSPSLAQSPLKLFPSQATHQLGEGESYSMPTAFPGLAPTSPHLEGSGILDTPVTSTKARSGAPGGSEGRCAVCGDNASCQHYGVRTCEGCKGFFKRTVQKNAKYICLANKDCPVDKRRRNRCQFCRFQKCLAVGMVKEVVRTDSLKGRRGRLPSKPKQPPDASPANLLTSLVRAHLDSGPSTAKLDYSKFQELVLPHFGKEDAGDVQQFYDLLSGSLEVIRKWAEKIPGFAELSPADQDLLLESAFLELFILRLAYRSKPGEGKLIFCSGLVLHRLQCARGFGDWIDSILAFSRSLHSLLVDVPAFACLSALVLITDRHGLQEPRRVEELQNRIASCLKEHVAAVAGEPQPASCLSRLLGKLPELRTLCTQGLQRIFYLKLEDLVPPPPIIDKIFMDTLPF
From the text: as §1

[3] = system: MDA-MB-231 cells; test: Migration/invasion of MDA-MB-231 cells; assay type: cell-based, human; conditions: MDA-MB-231 cells (FIG. 15)
From the text: FIG. 15 illustrates that the NR4A1 antagonist DIM-C-pPhCO2ME inhibits migration/invasion of MDA-MB-231 cells.
(§2) Assessing downstream effects of the above β1-integrin inhibition, knockdown of NR4A1 (TR3) by RNA interference decrease migration and invasion performance of SKBr3 and MDA-MB-231 cells (FIG. 14). […] Moreover, the effects of other NR4A1 antagonists on migration and invasion of the breast cancer cells were investigated.

[4] = system: SKBR3 cells; test: Migration/invasion of SKBR3 cells; assay type: cell-based, human; conditions: SKBR3 cells (FIGS. 16, 17)
From the text: FIG. 16 illustrates that the NR4A1 antagonist DIM-C-pPhCO2ME inhibits migration/invasion of SKBR3 cells.
as §2

[5] = system: pancreatic cancer cells; conditions: stated with previous studies; cited from earlier work
[6] = system: L3.6pL orthotopic xenograft; test: L3.6pL orthotopic xenograft in athymic nude mice, tumor lysates by Western blot; assay type: in vivo; conditions: 30 mg/kg/d, compared to corn oil control; lysate from two animals (FIG. 10)
From the text: The tumor lysate from two animals is shown.

[7] = system: pancreatic cancer cells; test: Boyden Chamber invasion assay, pancreatic cancer cells; assay type: cell-based; conditions: 20 μM, p<0.001 (FIGS. 4A, 4B)
From the text: FIGS. 4A and 4B illustrate that DIM-C-pPhOH decreases pancreatic cancer cell invasion in a Boyden Chamber assay. Significant inhibition with p<0.001 indicated with “#”.
Previous studies indicate that in pancreatic cancers, NR4A1 regulates pro-survival genes (e.g. survivin) through an Sp1/p300/NR4A1 complex in which Sp1 binds promoter DNA. […] A third pathway involves activation of mTOR which is due to inactivation of p53 by binding NR4A1 and this pathway is only observed in cancer cell lines and tumors expressing wild-type p53.

[8] = system: β1-integrin; test: Expression of β1-integrin and related gene products, pancreatic cancer cells; assay type: cell-based; conditions: 20 μM (FIG. 7)
Procedure: (§3) Discovery of NR4A1-regulated pro-invasion/migration genes was determined using Illumina Human HT-12V4 Beadchip arrays (FIGS. 5A and 5B). Knockdown of NR4A1 in Panc1 cells decreased expression of β1-integrin which is known to play an important role in cell migration and invasion. […] The loss of α5-integrin may be indirect since it was previously reported that β1-integrin silencing by RNAi decreased α5-integrin. […] Decreased adhesion to fibronectin-coated plates was also observed in pancreatic cancer cells treated with DIM-C-pPhOH (FIG. 9), confirming that siNR4A1 and NR4A1 antagonists decrease expression of β1-integrin. This represents a novel approach for targeting this pro-oncogenic factor in pancreatic cancer.

[9] = system: L3.6pL orthotopic xenograft; conditions: athymic nude mice, orthotopic model; previous studies; cited from earlier work
[10] = system: β1-integrin; test: β1-integrin expression, SW480 colon cancer cells; assay type: cell-based; conditions: SW480 colon cancer cells (FIG. 13)
[11] = system: β1-integrin; test: β1-integrin expression, RKO colon cancer cells; assay type: cell-based; conditions: RKO colon cancer cells (FIG. 13)
[12] = system: pancreatic cancer cells; test: Adhesion to human fibronectin-coated plates, pancreatic cancer cells; assay type: cell-based; conditions: 20 μM, p<0.001 / p<0.005 (FIG. 9)
Procedure: Significant inhibition with p<0.001 indicated with “#” and significant inhibition with p<0.005 indicated with “***”.
as §3

[13] = system: β1-integrin; test: β1-integrin expression, MCF-7 breast cancer cells; assay type: cell-based; conditions: MCF-7 cells
[14] = system: β1-integrin; test: β1-integrin expression, SKBR3 breast cancer cells; assay type: cell-based, human; conditions: SKBR3 cells (FIGS. 11, 12)
[15] = system: β1-integrin; test: β1-integrin expression, MDA-MB-231 breast cancer cells; assay type: cell-based, human; conditions: MDA-MB-231 cells (FIGS. 11, 12)

Sequence of ligand binding domain (LBD) of NR4A1 (P22736 360-595 limits assumed): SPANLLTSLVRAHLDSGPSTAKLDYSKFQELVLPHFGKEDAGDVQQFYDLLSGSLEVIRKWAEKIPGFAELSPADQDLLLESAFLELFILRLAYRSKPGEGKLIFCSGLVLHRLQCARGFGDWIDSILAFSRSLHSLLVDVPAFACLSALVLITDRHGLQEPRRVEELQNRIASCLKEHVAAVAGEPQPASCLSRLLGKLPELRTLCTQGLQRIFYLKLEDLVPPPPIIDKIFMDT

SMILES | binding to His-NR4A1 (LBD), fluorescence quenching [1] | luciferase activity (NR4A1-dependent transactivation) [2] | migration and invasion [3] | migration and invasion [4] | apoptosis [5] | pancreatic cancer cell growth [5] | expression of α5-integrin in tumor lysates [6] | expression of β1-integrin in tumor lysates [6] | invasion [7] | β1-integrin and related gene products [8] | tumor growth [9] | β1-integrin expression [10] | β1-integrin expression [11] | cell adhesion to human fibronectin-coated plates [12] | β1-integrin expression [13] | β1-integrin expression [14] | β1-integrin expression [15]
COC(=O)c1ccc(C(c2c[nH]c3ccccc23)c2c[nH]c3ccccc23)cc1 [DIM-C-pPhCO2Me] | binds the LBD of NR4A1 | inhibits NR4A-dependent transactivation | inhibits migration and invasion | inhibits migration and invasion | – | – | – | – | – | – | – | – | – | – | – | – | –
Oc1ccc(C(c2c[nH]c3ccccc23)c2c[nH]c3ccccc23)cc1 [DIM-C-pPhOH, 1,1-bis(3′-indolyl)-1-(p-hydroxyphenyl)methane] | quenches fluorescence | decreased luciferase activity | – | – | induce apoptosis | inhibit pancreatic cancer cell growth | decreases expression | decreases expression | decreased invasion | decreases β1-integrin and related gene products | inhibits tumor growth | decreases β1-integrin expression | decreases β1-integrin expression | decreases pancreatic cancer cell adhesion | decreased β1-integrin expression | decreased β1-integrin expression | decreased β1-integrin expression
